Laboratory results taken from patent US20110281852A1 (priority 2010, published 2011).
Where two headings read alike, the source gives them in different places.

Tests used:
[1] = in vivo; cited from earlier work
[2] = test system: 3T3-L1 cells; assay: Oil-Red-O staining and quantification, berberine with amentoflavone in 3T3-L1 (Example 6); assay type: cell-based, mouse; conditions: Mus musculus
Procedure: (§1) Oil-Red-O staining and quantification: Oil-Red-O Staining and its quantification were performed as previously reported. Briefly, medium was removed and cells were washed with PBS twice, fixed with 3.7% formalin at room temperature for 30 min, then rinsed with pure water, added 60% isopropanol and incubated for 5 minutes, then moved out isopropanol and stained cells with diluted Oil-Red-O solution (Oil-Red-O store solution (3 mg/ml in pure isopropanol): water=3:2) at room temperature for 10 min. Then the diluted Oil-Red-O solution was removed and cells were washed 3 times with pure water. After staining, the cells were washed twice with 70% ethanol to remove excess stain. Stained oil droplets in the cells were dissolved in isopropanol containing 4% Nonidet-P40 (Fisher Scientific, Pittsburgh, Pa., USA) shaking in 37° C. at speed 100 rpm for 1 hour, and OD values were measured at an absorbance of 490 nm and then normalized with control group.

[3] = test system: C/EBPα; assay: Real-time RT-PCR, C/EBPα mRNA in 3T3-L1; assay type: cell-based, mouse; conditions: 8 days
From the text: (§2) Realtime RT-PCR: Real-time reverse transcriptase polymerase chain reaction (RT-PCR) analysis was used to measure mRNA expression of genes SREBP-1, PPARγ, C/EBPα, low density lipoprotein receptor (LDLR), Adiponectin, and fatty acid synthase (FAS) under the control of β-actin. Briefly, total RNA was isolated from 3T3-L1 cells following treatment for 8 days with Trizol reagent (Invitrogen, Carlsbad, Calif., USA) according to the manufacturer's instruction. RNA was quantified using absorption of light at 260 nm, and sample purity was checked by OD 260 nm/280 nm. 0.8 μg of total RNA from each sample was used for reverse transcription reaction using the TaqMan Reverse Transcription Reagents (Applied Biosystems, Foster City, Calif., USA) according to the manufacturers' instructions. PCR was done using the SYBR green Master Mix (Applied Biosystems, Foster City, Calif., USA) according to the manufacturers' instructions. The temperature cycling conditions of amplification were as follows: an initial step of denaturation at 95° C. for 10 min, 40 cycles of denaturation at 95° C. for 30 s, annealing at 55° C. for 30 s, and elongation at 72° C. for 30 s. Realtime RT-PCR was performed using Mx3000P Realtime Thermocyclers (Statagene, La Jolla, Calif., USA). The relative mRNA levels of these genes were calculated by 2-delta delta CT method and normalized with control groups.

[4] = test system: Adiponectin; assay: Real-time RT-PCR, Adiponectin mRNA in 3T3-L1; assay type: cell-based, mouse; conditions: 8 days
From the text: as §2

[5] = MTT assay, 3T3-L1 viability during differentiation with clozapine, risperidone, berberine (Example 2); assay type: cell-based, mouse; conditions: mouse, 3T3-L1 cells during differentiation induction; read-out: reduction of cell viability
Procedure: (§3) Cell culture and drug treatment: 3T3-L1 cells (American Type Culture Collection, Manassas, Va., USA) were cultured at 37° C. in a humidified 5% CO2 atmosphere and grown in a DMEM (Sigma-Aldrich, St. Louis, Mo. USA) supplemented with 10% Fetal Bovine Serum (FBS, Atlanta Biologicals Corp., Lawrenceville, Ga., USA), 100 units/ml penicillin and 100 μg/ml streptomycin. Differentiation was induced by addition of 167 nM insulin, 520 μM isobutylmethylxanthine (IBMX), and 1 μM dexamethasone for 2 days and then only with 167 nM insulin for 6 days. Detailed protocol was described as our previous report (Hu et al., Phytomedicine (2009) 16(9):864-873).
(§4) Medium was removed after differentiation and treatment for 8 days, MTT (Methylthiazolyldiphenyl—tetrazolium bromide 0.5 mg/ml, 50 μl/well) was added.

[6] = test system: PPARγ; assay: Real-time RT-PCR, PPARγ mRNA in 3T3-L1; assay type: cell-based, mouse; conditions: 15 μM clozapine, 8 days
From the text: as §2

[7] = test system: 3T3-L1 cells; assay: Oil-Red-O staining and quantification, clozapine/risperidone induced adipogenesis in 3T3-L1 (Example 2); assay type: cell-based, mouse; conditions: 8 days
Procedure: Detailed protocol was described as our previous report (Hu et al., Phytomedicine (2009) 16(9):864-873).
as §1, with “reported (Liu et al., Sinica (2004) 25:1052-1057).” for “reported.”, “water. Images were obtained using an Olympus IX70 inverted microscope equipped for phase-contrast microscopy (Olympus, Tokyo, Japan).” for “water.”

[8] = test system: low density lipoprotein receptor (LDLR); assay: Real-time RT-PCR, LDLR mRNA in 3T3-L1; assay type: cell-based, mouse; conditions: 8 days
From the text: as §2

[9] = test system: SREBP-1; assay: Real-time RT-PCR, SREBP-1 mRNA in 3T3-L1; assay type: cell-based, mouse; conditions: 8 days
From the text: as §2

[10] = test system: 3T3-L1 cells; assay: MTT assay, 3T3-L1 viability during differentiation with clozapine, risperidone, berberine (Example 2); assay type: cell-based, mouse; conditions: day 8 of differentiation
Procedure: as §3, §4

[11] = over 10 weeks of treatment; cited from earlier work
[12] = test system: fatty acid synthase (FAS); assay: Real-time RT-PCR, FAS mRNA in 3T3-L1; assay type: cell-based, mouse; conditions: 50 μM risperidone, 8 days
From the text: as §2

CC(C)CC(N(C)C)C1(c2ccc(Cl)cc2)CCC1 (stereo not drawn) [sibutramine]
effect in antipsychotic-induced weight gain [1]: no statistically significant effect

O=c1cc(-c2ccc(O)c(-c3c(O)cc(O)c4c(=O)cc(-c5ccc(O)cc5)oc34)c2)oc2cc(O)cc(O)c12 [amentoflavone, reference compound]
inhibition at 25 µM ([2]; 3T3-L1, read-out: enhancement of the inhibitory effects of berberine, 25 μM amentoflavone added to 4 μM berberine, with 15 μM clozapine): 10.1% | inhibition at 25 µM ([2]; 3T3-L1, read-out: enhancement of the inhibitory effects of berberine, 25 μM amentoflavone added to 8 μM berberine, with 15 μM clozapine): 7.8%

CN1CCN(C2=Nc3cc(Cl)ccc3Nc3ccccc32)CC1 [clozapine, reference compound]
increase of C/EBPα mRNA expression vs control group ([3]; 15 μM clozapine): 45.7% | increase of adiponectin mRNA expression vs control group ([4]; 15 μM clozapine): 45.5% | cytotoxicity at 8 days, 15 μM [5]: 6.2% | cytotoxicity at 8 days, 30 μM [5]: 12.5% | increase of PPARγ mRNA expression vs control group [6]: 68.3% | induced adipogenesis vs vehicle treated group ([7]; 15 μM clozapine): 37.4% | induced adipogenesis vs vehicle treated group ([7]; 30 μM clozapine): 25.2% | increase of LDLR mRNA expression vs control group ([8]; 15 μM clozapine): 63.1% | increase of SREBP-1 mRNA expression vs control group ([9]; 15 μM clozapine): 27.6%

CN(C)C(=N)N=C(N)N [metformin]
effect in antipsychotic-induced weight gain [1]: no statistically significant effect

CCCCCCCCCCC[C@@H](C[C@@H]1OC(=O)[C@H]1CCCCCC)OC(=O)[C@H](CC(C)C)NC=O [orlistat]
effect in antipsychotic-induced weight gain [1]: no statistically significant effect

Cc1nc2n(c(=O)c1CCN1CCC(c3noc4cc(F)ccc34)CC1)CCCC2 [risperidone, reference compound]
increase of C/EBPα mRNA expression vs control group ([3]; 50 μM risperidone): 48.8% | increase of adiponectin mRNA expression vs control group ([4]; 50 μM risperidone): 63.8% | enhancement of cell viability ([10]; printed 'for 15 μM clozapine treatment'): 14% | enhancement of cell viability ([10]; printed 'for 30 μM clozapine treatment'): 16.8% | weight gain [11]: ~2 kg | increase of FAS mRNA expression vs control group [12]: 34.4% | induced adipogenesis vs vehicle treated group ([7]; 25 μM risperidone): 14.1% | induced adipogenesis vs vehicle treated group ([7]; 50 μM risperidone): 26.5% | increase of LDLR mRNA expression vs control group ([8]; 50 μM risperidone): 61.5% | increase of SREBP-1 mRNA expression vs control group ([9]; 50 μM risperidone): 133.5%
